According to patent EP0624159B1, “PYRIDYL SUBSTITUTED IMIDAZOLES” (SMITHKLINE BEECHAM CORPORATION, priority 1992, dated 1993):

Assays:
[1] = test system: IL-1 production by human monocytes; test: Inhibition of in vitro IL-1 production by LPS-stimulated human monocytes (IL-1 bioassay via EL-4 IL-2 secretion); assay type: cell-based; settings: Monocyte; human peripheral blood monocytes, compound 1 hr before LPS 50 ng/ml, 24 hours at 37°C
Method: The effects of compounds of Formula (I) on the in vitro production of IL-1 by human monocytes was examined using the following protocol.
Bacterial lipopolysaccharide (LPS) was used to induce IL-1 production by human peripheral blood monocytes. IL-1 activity was measured by its ability to stimulate a Interleukin 2 (IL-2) producing cell line (EL-4) to secrete IL-2, in concert with A23187 ionophore, according to the method of Simon et al., J. Immunol. Methods, 84, 85, (1985). Human peripheral blood monocytes were isolated and purified from either fresh blood preparations from volunteer donors, or from blood bank buffy coats, according to the procedure of Colotta et al., J. Immunol., 132, 936 (1984). 1 X 10^6 of such monocytes were plated in 24-well plates at a concentration of 1-2 million/ml per well. The cells were allowed to adhere for 2 hours, after which time non-adherent cells were removed by gentle washing. Test compounds were then added to the cells for 1 hour (hr) before the addition of lipopolysaccharide (50 ng/ml), and the cultures were incubated at 37°C for an additional 24 hours. At the end of the incubation period, culture supernatants were removed and clarified of cells and all debris. Culture supernatants were immediately assayed for IL-1 biological activity in the manner described above, as well as for prostaglandin and/or leukotriene concentrations by radioimmunoassay.

[2] = test system: TNF production by Human Monocytes; test: Inhibition of in vitro TNF production by LPS-stimulated human monocytes (radioimmunoassay / ELISA); assay type: cell-based; settings: Monocyte; human peripheral blood monocytes, compound 45 minutes before LPS 100 ng/ml, 16-18 hours at 37°C
Method: The effects of compounds of Formula (I) on the in vitro production of TNF by human monocytes was examined using the following protocol.
Human peripheral blood monocytes were isolated and purified from either blood bank buffy coats or plateletpheresis residues, according to the procedure of Colotta, R. et al., J. Immunol., 132(2):936 (1984). The monocytes were plated at a density of 1 X 10^6 cells/ml medium/well in 24-well multi-dishes. […]
The assay buffer consisted of 0.01M NaPO4, 0.15M NaCl, 0.025M EDTA and 0.1% sodium azide at pH 7.4. […] Tubes were centrifuged for 30 minutes at 2000 rpm, supernatants were carefully aspirated, and radioactivity associated with the pellets measured in a Beckman Gamma 5500 counter. […] The concentrations of TNF in the samples was read of a standard curve of rhTNF that was linear in the 157 to 20,000 pg/ml range.
Iodination of rhTNF was performed using a modified chloramine-T method of Frolik et al., J. Biol. Chem., 259:10995-11000 (1984). […] The peak radioactivity containing fractions were pooled and stored at -20°C. […] Biological activity of iodinated TNF was measured by the L929 cytotoxicity assay of Neale, M.L. et al., Eur. J. Can. […]

**Q.** What does the source list for `Fc1ccc(-c2nc(-c3ccccc3)cn2-c2ccncc2)cc1` [Example 1, 1-(4-Pyridyl)-2-(4-fluorophenyl)-4-phenylimidazole]?
**A.** IC50 [1]: 0.1 to 5 µM; IC50 [2]: 0.5 to 3.5 µM

**Q.** Which IC50 [1] does the source give for `C[S+]([O-])c1ccc(-c2cn(-c3ccncc3)c(-c3ccc(F)cc3)n2)cc1` (stereo not shown) [Example 4, 1-(4-Pyridyl)-2-(4-fluorophenyl)-4-(4-methylsulfinylphenyl)imidazole] here?
**A.** Its IC50 is greater than 5 µM.

**Q.** Which IC50 [1] does the source give for `Oc1ccc(-c2cn(-c3ccncc3)c(-c3ccc(F)cc3)n2)cc1` [Example 2, 1-(4-Pyridyl)-2-(4-fluorophenyl)-4-(4-hydroxyphenyl)imidazole] here?
**A.** Its IC50 is 0.1 to 5 µM.

**Q.** And the IC50 [2]?
**A.** The IC50 was 0.5 to 3.5 µM.

**Q.** How did the IC50 [1] turn out when `Cc1cn(-c2ccncc2)c(-c2ccc(F)cc2)n1` [Example 5, 1-(4-pyridyl)-2-(4-fluorophenyl)-4-methylimidazole] was run?
**A.** The IC50 was 0.1 to 5 µM.

**Q.** With `CSc1ccc(-c2cn(-c3ccncc3)c(-c3ccc(F)cc3)n2)cc1` [Example 3, 1-(4-Pyridyl)-2-(4-fluorophenyl)-4-(4-thiomethylphenyl) imidazole] as the compound, how does the IC50 [1] read?
**A.** The IC50 was greater than 5 µM.
